Measurements taken from paper PMC7058083, “Structural basis of ligand binding modes at the human formyl peptide receptor 2” (Nature Communications, 2020).

Legend:
[1] = test system: FPR2 (wild type and mutant V113A); experiment: cAMP inhibition assay, HEK293 cells, 5 μM forskolin; format: cell-based, human
Description: contribute to the effect of mutations on ligand binding and receptor signaling in addition to the direct disruption of receptor-ligand interaction.
To make the above clear, the statement “The effect of these mutations on ligand binding and receptor signaling could be explained by direct disruption of the receptor-ligand interaction, destabilization of ligand-binding pocket conformation, and/or impairment of global conformational rearrangement required for receptor activation” has been added to the […]
3) The authors use the crystal structures as an opportunity to dock other ligands with the their experimentally determined structure of FPR2. With the exception of LXA4, the docking of formyl peptides with mutagenesis experiments produce insightful results for fMLFK. For LXA4, more work is necessary to justify the docking pose. Otherwise, it is my opinion that it should […]
— We appreciated the reviewer’s comment. Functional assays for LXA4 are challenging due to the poor ability of this ligand to trigger calcium mobilization and IP accumulation. To verify the predicted binding mode of LXA4 in FPR2, we have performed additional assays by […]
fold while having minimal effect on the LXA4-induced cAMP reduction. […]
model of LXA4. […]
was detected and the concentrations were shown. […]
5) How was the omit map calculated to remove any bias for the agonist in SFig. […]

FPR2 [2] = test system: FPR2; set-up: method as in PMID 24285541; conditions: cited from earlier work
Description: To investigate the binding mode of formyl peptide in FPR2, molecular docking of this tripeptide to the FPR2 crystal structure was performed (Supplementary Data 2). […] It was also reported that the polar residue D281^7.32 was crucial for the interaction of FPR2 with certain formyl peptides. It was proposed that this negatively charged residue in FPR2 was repulsive with the C-terminal COO− group of fMLF and the negatively charged glutamate residue in fMLFE, but forms a stable interaction with the p ...

FPR2 [3] = test system: FPR2; set-up: method as in 3 sources, ref 4 = [4]; PMID 24285541; doi:10.1074/jbc.M113.509216; 4. He HQ Troksa EL Caltabiano G Pardo L Ye RD Structural determinants for the interaction of formyl peptide receptor 2 with peptide ligands J. Biol. Chem. 2014 289 2295 2306 10.1074/jbc.M113.509216 24 ||| ref 34 = [34]; PMID 11818455; 34. Bae YS Kim Y Park JC Suh PG Ryu SH The synthetic chemoattractant peptide, Trp-Lys-Tyr-Met-Val-D-Met, enhances monocyte survival via PKC-dependent Akt activation J. Leukoc. Biol. 2002 71 329 338 11 ||| ref 35 = [35]; PMID 11285256; doi:10.1074/jbc.M007769200; 35. Christophe T The synthetic peptide Trp-Lys-Tyr-Met-Val-Met-NH 2 specifically activates neutrophils through FPRL1/lipoxin A 4 receptors and is an agonist for the orphan monocyte-expressed chemoattr; conditions: cited from earlier work
FPR2 [4] = conditions: cited from earlier work
Description: This movement breaks the hydrogen bonds between the C-terminal NH2- group of the peptide and the receptor residues D106^3.33 and R201^5.38, and disrupts the polar interaction network establishe ...

CCCCC[C@H](O)/C=C/C=C\C=C\C=C\[C@@H](O)[C@@H](O)CCCC(=O)O [LXA4, lipoxin A4]
effect of mutation on ligand-induced cAMP reduction ([1]; FPR2 V113A, 30 min): minimal
change in intracellular cAMP ([1]; wild-type FPR2, 30 min): measurable changes

N-formyl-Met-Leu-Phe [fMLF]
lower binding affinity (FPR2 [2]; FPR2 compared to FPR1): over 400 fold
lower potency in inducing Ca2+ mobilization (FPR2 [3]; FPR2 compared to FPR1): 2000 fold

fMLFII [formyl pentapeptide agonist]
binding affinity over fMLF at FPR2 (FPR2 [2]): increased
agonist potency over fMLF at FPR2 (FPR2 [3]): increased

WKYMVM-NH2
reduction in EC50 in stimulating phosphoinositide hydrolysis relative to WKYMVm (FPR2 [4]): over 100 fold
